How the values were obtained:
[1] = test system: CYP1A1; assay: Induction of expression of the CYP1A1 gene in OUMS-29 cells (RT-PCR); conditions: 1 day after addition, 3-MC 0 to 10000 nM, BP 0 to 50000 nM, PB 0 to 25 mM, corrected to beta-actin mRNA
Source text: (§1) The expression of cytochrome P450 in the OUMS-29 culture can be analyzed by assessing the level of mRNA content by the commonly known RT-PCR method using DNA primers specific to different types of cytochrome P450. These primers can be prepared from the sequences of the respective types of cytochrome P450 available from the Gene Bank database. The accession numbers at the Gene Bank are K03191 for CYP1A1, M55053 for CYP1A2, J02625 for CYP2E1, J04449 for CYP3A4, J04813 for CYP3A5, and D00408 for CYP3A7. The individual primers used were
(§2) The OUMS-29 culture was cultured for 5 to 7 days; the cells becoming confluent were harvested, from which RNA was extracted using the RNAeasy kit (Quiagen). This RNA, along with the previously determined primers specific to the respective types of cytochrome P450, was subjected to reverse transcription from mRNA and PCR using an one-step PCR kit (Takara Shuzo), after which it was separated using agarose gel and visualized with ultraviolet rays in the presence of ethidium bromide.
(§3) The cultured cells were separated, from which RNA was extracted using the method described above and subjected to RT-PCR.
(§4) Regarding annealing conditions for the RT-PCR method, the annealing temperatures were 55° C. for CYP1A1, 65° C. for CYP1A2, and 55° C. for CYP3A, the cycle numbers being 28 to 36 cycles.
The cycle number for beta-actin, serving as a control, was 15 cycles.
In this operation, an actin competitive RT-PCR kit (Takara Shuzo) was used to correct the total mRNA content in each sample with reference to the mRNA content of beta-actin, which is expressed to the same extent in all tissues.

[2] = test system: CYP1A2; assay: Induction of expression of the CYP1A2 gene in OUMS-29 cells (RT-PCR); conditions: 1 day after addition, 3-MC 0 to 10000 nM, BP 0 to 50000 nM, corrected to beta-actin mRNA
Source text: as §1, §2, §3, §4
The cycle number for beta-actin, serving as a control, was 15 cycles. […]

[3] = molecular target: T1, NADPH cytochrome P450 reductase (Homo sapiens, UniProt P16435); assay: Cytochrome P450 reductase activity of enzyme source of OUMS-29 origin (cytochrome C reduction); type: in vitro ADME; conditions: disrupted OUMS-29 cells, with NADPH; 1 unit = reducing 1 nanomol of cytochrome C per milligram of protein per minute
T1 construct: disrupted using an ultrasound generator; this suspension was used as the enzyme source; endogenous in cells; host or cells: OUMS-29 (SV40 T antigen-immortalized human fetal hepatocytes), sonicated cell suspension
T1 sequence (P16435 1-677): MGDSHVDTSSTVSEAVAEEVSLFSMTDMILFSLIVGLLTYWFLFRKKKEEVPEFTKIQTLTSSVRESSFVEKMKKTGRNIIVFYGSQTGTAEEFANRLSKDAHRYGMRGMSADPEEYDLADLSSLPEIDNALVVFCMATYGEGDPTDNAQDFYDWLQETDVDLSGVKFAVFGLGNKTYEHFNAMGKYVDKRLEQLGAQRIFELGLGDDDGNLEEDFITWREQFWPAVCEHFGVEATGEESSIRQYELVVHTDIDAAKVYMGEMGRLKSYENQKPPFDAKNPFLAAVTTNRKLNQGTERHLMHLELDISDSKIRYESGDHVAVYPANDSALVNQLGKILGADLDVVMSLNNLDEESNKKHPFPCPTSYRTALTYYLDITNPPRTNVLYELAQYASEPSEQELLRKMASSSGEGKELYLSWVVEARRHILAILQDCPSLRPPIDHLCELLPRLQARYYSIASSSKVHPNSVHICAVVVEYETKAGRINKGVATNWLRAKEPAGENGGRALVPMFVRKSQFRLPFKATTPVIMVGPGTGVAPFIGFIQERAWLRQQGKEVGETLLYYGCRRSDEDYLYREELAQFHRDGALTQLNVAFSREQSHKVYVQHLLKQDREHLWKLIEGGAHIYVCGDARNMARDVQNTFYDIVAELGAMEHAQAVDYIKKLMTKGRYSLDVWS
Protocol: Specifically, cytochrome P450 reductase activity was determined on the basis of cytochrome C reduction in the presence of NADPH (reduced nicotinamide adenine dinucleotide phosphate) and an enzyme source of OUMS-29 origin with cytochrome C as the substrate.

Compound: Cc1ccc2cc3c(ccc4ccccc43)c3c2c1CC3 [3-methylcholanthrene]
- expression of CYP1A1 (mRNA, RT-PCR) [1]: enhanced
- expression of CYP1A2 (mRNA, RT-PCR) [2]: enhanced

Compound: c1ccc2c(c1)c1cccc3ccc4cccc2c4c31 [benzpyrene]
- expression of CYP1A1 (mRNA, RT-PCR) [1]: enhanced
- expression of CYP1A2 (mRNA, RT-PCR) [2]: enhanced

Compound: CCC1(c2ccccc2)C(=O)NC(=O)NC1=O [phenobarbitone]
- expression of CYP1A1 (mRNA, RT-PCR) [1]: enhanced

Compound: cytochrome C
- cytochrome C reduction (cytochrome P450 reductase activity) [3]: 8 units
